Data set [1] has as its system HIV-1 IIIB (X4). Put plainly: Inhibition of HIV-1 infection (p24 ELISA). In kind it is cell-based. (In general: In an ELISA, binding on a coated surface is turned into a signal by an enzyme label.)
The test system of data set [2] is HIV-1 Bal (R5). As to the kind of experiment: Inhibition of HIV-1 infection (p24 ELISA). In kind it is cell-based.
For data set [3], the system named is HIV-1 IIIB. As to the kind of experiment: Inactivation of cell-free HIV-1 virions (PEG-6000 precipitation, p24 ELISA). In kind it is cell-based. Conditions: Human immunodeficiency virus 1, IIIB virus inactivation.
Data set [4] relates to HIV-1 Bal. Described as above. In kind it is cell-based.
Data set [5] deals with T1, HIV-1 HXB2 gp120 (Human immunodeficiency virus type 1 group M subtype B, UniProt P04578).
T1 construct: CHO-WT cells expressing HIV-1 HXB2 gp120; host or cells: CHO-WT cells
Put plainly: Flow cytometry competition with gp120 CD4bs-targeting mAbs on CHO-WT cells. It counts as binding. Conditions: 100 µM. As to the method:
Flow cytometry was used to detect compounds that competed with gp120 CD4bs-targeting mAbs for binding to gp120. In brief, 100 µL of FD016 at a concentration of 100 µM or PBS was first incubated with CHO-WT cells expressing HIV-1 HXB2 gp120 for 30 min at room temperature, and then gp120 CD4bs-targeting mAbs (5 μg/mL, 100 µL) and FITC-labeled goat anti-human secondary antibody were added successively. After three washes, the cells were analyzed with flow cytometry. ELISA was carried out to detect the activity of compounds that inhibit the binding of soluble CD4 (sCD4) or gp120 CD4bs-targeting mAbs to gp120 as previously described ([Si et al., 2004]; [Curreli et al., 2014]). Briefly, for sCD4 and gp120 binding, 50 µL of HIV-1 IIIB gp120 at 0.5 μg/mL was captured on polystyrene plate coated with sheep anti-gp120 antibody D7324 (Aalto Bio Reagents). sCD4 (ImmunoDiagnostics, Inc.) at 200 ng/mL was then added in the presence of an equal volume of different concentrations of compounds or PBS and incubated at 37°C for 1 h. […] After adding 3,3′,5,5′-tetramethylbenzidine chromogen substrate and sulfuric acid, the absorbance at 450 nm (A450) was recorded using a Microplate Reader (Tecan, Männedorf, Switzerland).
(A flow cytometer gives signals particle by particle.)

Data set [6] in a line: Cytotoxicity (CCK-8). In kind it is cell-based. Conditions: human. The method, then: Cell viability was detected following the instructions in the protocol provided in the cell counting kit-8 (CCK-8; Dojindo Molecular Technologies, Gaithersburg, MD, USA) as previously described ([Yang et al., 2018]). Briefly, MT-2 cells and CEMx174 517 5.25 M7 cells (3 × 10^4/well) were incubated with compounds at different concentrations at 37°C for 48 h. Then, the supernatant was discarded, and CCK8 diluted 10 times with fresh medium was added (200 μL/well). After 2–6 h of incubation at 37°C, the absorbance at 450 nm was measured using a microplate reader (Tecan, Männedorf, Switzerland).

Data set [7] has as its target T2, 6HB formation between N36 and C34-biotin (Human immunodeficiency virus type 1 group M subtype B, UniProt P04578).
T2 construct: preincubated with N36 peptide (2 μM, 50 μL) at 37°C for 1 h; purchased NIH AIDS Reagent Program
Put plainly: ELISA inhibition of six-helix bundle formation. Conditions: IC50, inhibition of 6HB formation between N36 and C34-biotin, peptides 0.5 μM final. In kind it is biochemical, HIV-1.
Description: An inhibitor (compound or C-peptide control) at graded concentrations was preincubated with N36 peptide (2 μM, 50 μL) at 37°C for 1 h. […] Subsequently, 50 μL of the mixture were added to the wells of the NC-1-coated plate, followed by incubation for 1 h. Then, HRP-labeled streptavidin and the substrate were added sequentially. The optical density at 450 nm was measured using a microplate reader (Tecan, Männedorf, Switzerland).

Data set [8] relates to 92/TH/009 (A/E, R5). Put plainly: Inactivation of cell-free HIV-1 clinical virus. Conditions: inactivation of cell-free virions, means ± SD. It counts as cell-based.
For data set [9], the system named is KNH1135 (A, R5). As to the kind of experiment: microbe, parasite or virus in culture. In kind it is cell-based, HIV-1. Conditions: inactivation of cell-free virions, clinical virus KNH1135 (A, R5); means ± SD.
For data set [10], the system named is SM145/GS 016 (C, R5). As to the kind of experiment: Inactivation of cell-free HIV-1 clinical virus. Conditions: inactivation of cell-free virions, means ± SD. In kind it is cell-based.
Data set [11] relates to PBL288 (C, R5). As to the kind of experiment: Inactivation of cell-free HIV-1 clinical virus. Conditions: inactivation of cell-free virions, means ± SD. In kind it is cell-based.
Setting [12] is: Human immunodeficiency virus 1, MT2, laboratory-adapted strain IIIB, MT-2 cells, p24 ELISA, read-out: IC50, inhibition of HIV-1 IIIB infection.
[13] abbreviates: Human immunodeficiency virus 1, laboratory-adapted strain Bal, CEMx174 5.25 M7 cells, p24 ELISA, read-out: IC50, inhibition of HIV-1 Bal infection.
The mark [14] stands for this setting: CEMx174 5.25 M7 cells, read-out: CC50, CEMx174 5.25 M7 cell.
[15] abbreviates: MT-2 cells, read-out: CC50, MT-2 cell.

The source of these data is article PMC7868322, “Rational Design of A Novel Small-Molecule HIV-1 Inactivator Targeting Both gp120 and gp41 of HIV-1” (Frontiers in Pharmacology, 2021).

Like-named read-outs stand apart in the source and are kept apart here.

On to `CC1(C)CC(NC(=O)C(=O)Nc2ccc(Cl)c(F)c2)CC(C)(C)N1` [FD016, N^1-(4-Chloro-3-Fluorophenyl)-N^2-(2,2,6,6-Tetramethylpiperidin-4-yl) Oxalamide], for which the IC50 – broadly, the concentration needed to halve the response being measured – stood at 5930 nM in data set [1] (setting [12]); 4400 nM in data set [1] (Human immunodeficiency virus 1, IIIB, combination experiment, alone, read-out: IC50 of FD016, Alone); 1190 nM in data set [1] (Human immunodeficiency virus 1, IIIB, in mixture with FD017, read-out: IC50 of FD016, In mixture); 18800 nM in data set [2] (Human immunodeficiency virus 1, Bal, combination experiment, alone, read-out: IC50 of FD016, Alone); 1820 nM in data set [2] (Human immunodeficiency virus 1, Bal, in mixture with FD017, read-out: IC50 of FD016, In mixture); 17000 nM in [2] (setting [13]). Also, the EC50 (as a rule, the concentration at which the effect is half-maximal) was above 10000 nM in data set [3] (alone, read-out: EC50 of FD016, Alone); 2510 nM in data set [3] (in mixture with FD017, read-out: EC50 of FD016, In mixture); above 20000 nM in data set [4] (Human immunodeficiency virus 1, Bal virus inactivation, alone, read-out: EC50 of FD016, Alone); 2630 nM in data set [4] (Human immunodeficiency virus 1, Bal virus inactivation, in mixture with FD017, read-out: EC50 of FD016, In mixture). Moreover, the “Inhibition of gp120 CD4bs mAbs (B12 and N6) binding to gp120-expressing CHO cells” value in data set [5] was “could inhibit the interaction of gp120 and CD4bs-targeting mAbs effectively”. Further, the CC50 at 48 h in data set [6] (setting [14]) and in data set [6] (setting [15]) was above 50000 nM in each case.

Regarding `O=C(O)c1cc(-c2ccc(/C=C3\SC(=S)N(CCc4ccc(O)cc4)C3=O)o2)ccc1Cl` [FD017, (Z)-2-Chloro-5-(5-((3-(4-Hydroxyphenethyl)-4-oxo-2-Thioxothiazolidin-5-ylidene)methyl)furan-2-yl)benzoic Acid], the IC50 in data set [1] (setting [12]) worked out at 1440 nM; in data set [1] (Human immunodeficiency virus 1, IIIB, combination experiment, alone, read-out: IC50 of FD017, Alone), 1800 nM; in data set [1] (Human immunodeficiency virus 1, IIIB, in mixture with FD016, read-out: IC50 of FD017, In mixture), 590 nM; in data set [2] (Human immunodeficiency virus 1, Bal, combination experiment, alone, read-out: IC50 of FD017, Alone), 1480 nM; in data set [2] (Human immunodeficiency virus 1, Bal, in mixture with FD016, read-out: IC50 of FD017, In mixture) it was 910 nM; in data set [2] (setting [13]), 830 nM. In [7], this compound yielded an IC50 of 1360 nM. Further, the EC50 is above 10000 nM in data set [3] (alone, read-out: EC50 of FD017, Alone); 1210 nM in [3] (in mixture with FD016, read-out: EC50 of FD017, In mixture); above 5000 nM in data set [4] (Human immunodeficiency virus 1, Bal virus inactivation, alone, read-out: EC50 of FD017, Alone); 1380 nM in data set [4] (Human immunodeficiency virus 1, Bal virus inactivation, in mixture with FD016, read-out: EC50 of FD017, In mixture). In addition, the CC50 (as a rule, the concentration at which the toxic effect on the cells reaches its halfway point) at 48 h in data set [6] (setting [14]) was found to be 39800 nM; in data set [6] (setting [15]), 47900 nM.

As to Maraviroc [reference compound], in data set [2] (laboratory-adapted strain Bal, CEMx174 5.25 M7 cells, p24 ELISA, read-out: IC50, inhibition of HIV-1 Bal infection), the IC50 is 1 nM. Also, the EC50 was above 500 nM in [4] (cell-free virions, 1 h at 4°C, PEG-6000 precipitation, read-out: EC50, inactivation of HIV-1 Bal); above 500 nM in data set [8]; above 500 nM in data set [9]; above 500 nM in [10]; above 500 nM in data set [11].
